Measured values: patent EP0048613B1, “4-0-Substituted -2-deoxystreptamine aminoglycoside derivatives, their preparation and formulations containing them” (ELI LILLY AND COMPANY, priority 1980, dated 1982)

How the values were obtained:
Proteus rettgeri C24 = experiment: MIC, standard agar dilution test; type: cell-based
Text: (§1) The antibacterial activity of the deprotected compounds of this invention is illustrated by the following in vitro and in vivo test data obtained with representative compounds. In Table I, the minimum inhibitory concentration (MIC) for representative compounds against a wide range of gram-positive and gram-negative bacteria is presented. The MIC values were obtained by the standard agar dilution test.

Enterobacter cloacae EB5 = experiment: MIC, standard agar dilution test; type: cell-based
Text: as §1

[1] = test system: Streptococcus pneumoniae Park I; experiment: MIC, standard agar dilution test; type: cell-based; conditions: Streptococcus pneumoniae Park I; agar dilution
Text: as §1

[2] = test system: Citrobacter freundii CF17; experiment: MIC, standard agar dilution test; type: cell-based
Text: as §1

[3] = test system: Enterobacter aerogenes C32; experiment: MIC, standard agar dilution test; type: cell-based
Text: as §1

Hemophilus influenzae 76 = experiment: MIC, standard agar dilution test; type: cell-based
Text: as §1

Proteus morganii PR15 = experiment: MIC, standard agar dilution test; type: cell-based
Text: as §1

[4] = test system: Enterobacter aerogenes X68; experiment: MIC, standard agar dilution test; type: cell-based
Text: as §1

[5] = test system: Enterobacter cloacae 265A; experiment: MIC, standard agar dilution test; type: cell-based
Text: as §1

[6] = test system: Pseudomonas aeruginosa Ps18; experiment: MIC, standard agar dilution test; type: cell-based
Text: as §1

[7] = test system: Klebsiella pneumoniae X26; experiment: MIC, standard agar dilution test; type: cell-based
Text: as §1

Proteus rettgeri PR7 = experiment: MIC, standard agar dilution test; type: cell-based
Text: as §1

Serratia marcescens X99 = experiment: MIC, standard agar dilution test; type: cell-based
Text: as §1

[8] = test system: Salmonella heidelberg X514; experiment: MIC, standard agar dilution test; type: cell-based
Text: as §1

[9] = test system: Staphylococcus epidermidis EPI2; experiment: MIC, standard agar dilution test; type: cell-based
Text: as §1

[10] = test system: Pseudomonas aeruginosa X239; experiment: MIC, standard agar dilution test; type: cell-based
Text: as §1

[11] = test system: Salmonella typhimurium 1335; experiment: MIC, standard agar dilution test; type: cell-based
Text: as §1

[12] = test system: Staphylococcus epidermidis EPI1; experiment: MIC, standard agar dilution test; type: cell-based; conditions: Staphylococcus epidermidis EPI1; agar dilution
Text: as §1

[13] = test system: Klebsiella pneumoniae KAE; experiment: MIC, standard agar dilution test; type: cell-based
Text: as §1

[14] = test system: Staphylococcus aureus V41; experiment: MIC, standard agar dilution test; type: cell-based
Text: as §1

[15] = test system: Staphylococcus aureus X400; experiment: MIC, standard agar dilution test; type: cell-based
Text: as §1

[16] = test system: Enterobacter aerogenes EB17; experiment: MIC, standard agar dilution test; type: cell-based
Text: as §1

Shigella sonnei N9 = experiment: MIC, standard agar dilution test; type: cell-based
Text: as §1

Escherichia coli N10 = experiment: MIC, standard agar dilution test; type: cell-based
Text: as §1

[17] = test system: Pseudomonas aeruginosa X528; experiment: MIC, standard agar dilution test; type: cell-based
Text: as §1

[18] = test system: Streptococcus pyogenes C203; experiment: MIC, standard agar dilution test; type: cell-based
Text: as §1

[19] = test system: Streptococcus group D X66; experiment: MIC, standard agar dilution test; type: cell-based
Text: as §1

[20] = test system: Staphylococcus aureus S13E; experiment: MIC, standard agar dilution test; type: cell-based; conditions: Staphylococcus aureus S13E; agar dilution
Text: as §1

Proteus inconstans PR33 = experiment: MIC, standard agar dilution test; type: cell-based
Text: as §1

[21] = test system: Staphylococcus aureus X1.1; experiment: MIC, standard agar dilution test; type: cell-based
Text: as §1

[22] = test system: Hemophilus influenzae C.L.; experiment: MIC, standard agar dilution test; type: cell-based
Text: as §1

[23] = test system: Streptococcus group D 9960; experiment: MIC, standard agar dilution test; type: cell-based
Text: as §1

[24] = test system: Bordetella bronchiseptica 16; experiment: MIC, standard agar dilution test; type: cell-based
Text: as §1

Serratia marcescens SE3 = experiment: MIC, standard agar dilution test; type: cell-based
Text: as §1

Escherichia coli EC14 = experiment: MIC, standard agar dilution test; type: cell-based
Text: as §1

Escherichia coli TEM = experiment: MIC, standard agar dilution test; type: cell-based; conditions: Escherichia coli TEM; agar dilution
Text: as §1

[25] = test system: Staphylococcus aureus 3055; experiment: Subcutaneous therapy of experimental bacterial infection in mice; type: in vivo; conditions: subcutaneous doses at 1 and 5 hours post infection
Protocol: Table II illustrates the effective dose (ED50, effective dose to protect 50 percent of the test animals) for representative compounds of this invention against an experimental bacterial infection in mice.
The EDso values were determined as described by W. E. Wick et al., Journal of Bacteriology, 81 [No. 2], 233-235 (1961).

Substance: 2′-N-(RS-γ-Amino-α-hydroxybutyryl)apramycin [Test compound 2]
- Minimum inhibitory concentration (Proteus rettgeri C24): 16 µg/mL
- Minimum inhibitory concentration (Enterobacter cloacae EB5): 32 µg/mL
- Minimum inhibitory concentration [1]: 32 µg/mL
- Minimum inhibitory concentration [2]: 32 µg/mL
- Minimum inhibitory concentration [3]: 16 µg/mL
- Minimum inhibitory concentration (Hemophilus influenzae 76): 32 µg/mL
- Minimum inhibitory concentration (Proteus morganii PR15): 128 µg/mL
- Minimum inhibitory concentration [4]: 16 µg/mL
- Minimum inhibitory concentration [5]: 64 µg/mL
- Minimum inhibitory concentration [6]: 128 µg/mL
- Minimum inhibitory concentration [7]: 8 µg/mL
- Minimum inhibitory concentration (Proteus rettgeri PR7): 16 µg/mL
- Minimum inhibitory concentration (Serratia marcescens X99): 16 µg/mL
- Minimum inhibitory concentration [8]: 32 µg/mL
- Minimum inhibitory concentration [9]: 8 µg/mL
- Minimum inhibitory concentration [10]: 128 µg/mL
- Minimum inhibitory concentration [11]: 32 µg/mL
- Minimum inhibitory concentration [12]: 16 µg/mL
- Minimum inhibitory concentration [13]: 32 µg/mL
- Minimum inhibitory concentration [14]: 32 µg/mL
- Minimum inhibitory concentration [15]: 64 µg/mL
- Minimum inhibitory concentration [16]: 32 µg/mL
- Minimum inhibitory concentration (Shigella sonnei N9): 32 µg/mL
- Minimum inhibitory concentration (Escherichia coli N10): 16 µg/mL
- Minimum inhibitory concentration [17]: 128 µg/mL
- Minimum inhibitory concentration [18]: 32 µg/mL
- Minimum inhibitory concentration [19]: >128 µg/mL
- Minimum inhibitory concentration [20]: 16 µg/mL
- Minimum inhibitory concentration (Proteus inconstans PR33): 32 µg/mL
- Minimum inhibitory concentration [21]: 16 µg/mL
- Minimum inhibitory concentration [22]: 32 µg/mL
- Minimum inhibitory concentration [23]: >128 µg/mL
- Minimum inhibitory concentration [24]: 128 µg/mL
- Minimum inhibitory concentration (Serratia marcescens SE3): 32 µg/mL
- Minimum inhibitory concentration (Escherichia coli EC14): 32 µg/mL
- Minimum inhibitory concentration (Escherichia coli TEM): 8 µg/mL
- Effective dose (ED50) ([25]; challenged with 331 LD50's): 21.8^2 mg/kg×2

Substance: 2′-N-(S-γ-Amino-α-hydroxybutyryl)nebramine [Test compound 5]
- Minimum inhibitory concentration (Proteus rettgeri C24): 64 µg/mL
- Minimum inhibitory concentration (Enterobacter cloacae EB5): 128 µg/mL
- Minimum inhibitory concentration [1]: 128 µg/mL
- Minimum inhibitory concentration [2]: 64 µg/mL
- Minimum inhibitory concentration [3]: 64 µg/mL
- Minimum inhibitory concentration (Hemophilus influenzae 76): 64 µg/mL
- Minimum inhibitory concentration (Proteus morganii PR15): 64 µg/mL
- Minimum inhibitory concentration [4]: 64 µg/mL
- Minimum inhibitory concentration [5]: >128 µg/mL
- Minimum inhibitory concentration [6]: 128 µg/mL
- Minimum inhibitory concentration [7]: 64 µg/mL
- Minimum inhibitory concentration (Proteus rettgeri PR7): 32 µg/mL
- Minimum inhibitory concentration (Serratia marcescens X99): 128 µg/mL
- Minimum inhibitory concentration [8]: 128 µg/mL
- Minimum inhibitory concentration [9]: 32 µg/mL
- Minimum inhibitory concentration [10]: 128 µg/mL
- Minimum inhibitory concentration [11]: 128 µg/mL
- Minimum inhibitory concentration [12]: 64 µg/mL
- Minimum inhibitory concentration [13]: 64 µg/mL
- Minimum inhibitory concentration [14]: 64 µg/mL
- Minimum inhibitory concentration [15]: 64 µg/mL
- Minimum inhibitory concentration [16]: 64 µg/mL
- Minimum inhibitory concentration (Shigella sonnei N9): 64 µg/mL
- Minimum inhibitory concentration (Escherichia coli N10): 128 µg/mL
- Minimum inhibitory concentration [17]: >128 µg/mL
- Minimum inhibitory concentration [18]: 128 µg/mL
- Minimum inhibitory concentration [19]: >128 µg/mL
- Minimum inhibitory concentration [20]: 32 µg/mL
- Minimum inhibitory concentration (Proteus inconstans PR33): 64 µg/mL
- Minimum inhibitory concentration [21]: 32 µg/mL
- Minimum inhibitory concentration [22]: 64 µg/mL
- Minimum inhibitory concentration [23]: >128 µg/mL
- Minimum inhibitory concentration [24]: >128 µg/mL
- Minimum inhibitory concentration (Serratia marcescens SE3): >128 µg/mL
- Minimum inhibitory concentration (Escherichia coli EC14): >128 µg/mL
- Minimum inhibitory concentration (Escherichia coli TEM): 32 µg/mL
- Effective dose (ED50) ([25]; challenged with 1794 LD50's): >70^3 mg/kg×2
